Article PMC11790914, “Chemogenomics for steroid hormone receptors (NR3)” (Communications Chemistry, 2025)
Several values for one entry are separate records, joined by “and”; a condition that tells them apart may be missing. Equal entries are not always repeated.

Experiments:
[1] = system: ATF6 activity in Hela ATF6 reporter cells; experiment: Endoplasmic reticulum stress assay (ATF6 Renilla luciferase reporter, tunicamycin); assay type: cell-based; details: for ATF6 activity (tunicamycin-induced endoplasmic reticulum stress): Hela ATF6 reporter cells, tunicamycin 100 ng/mL, 18 h, compounds at recommended concentrations, n = 5; for activity at 1 µM: Homo sapiens, HeLa, single replicates n=1 to n=5, read-out: ER stress [rel. ATF6 activity]
In short: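 HeLa ATF6 Renilla reporter cells were pretreated 4 h with compounds in 0.1% DMSO, then stimulated with tunicamycin (100 ng/mL) for 18 h. Renilla luminescence (DualGlo) was normalized to 0.1% DMSO control; five independent experiments.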

BRPF1 = molecular target: T1, BRPF1 (Homo sapiens, UniProt P55201); experiment: Liability panel screening by DSF: BRPF1; assay type: binding; details: DSF, 20 µM, n=2; read-out: Mean ΔTM BRPF1
T1 construct: This panel comprised ten highly ligandable kinases and bromodomains; made in house
T1 sequence (P55201 628-732 limits assumed): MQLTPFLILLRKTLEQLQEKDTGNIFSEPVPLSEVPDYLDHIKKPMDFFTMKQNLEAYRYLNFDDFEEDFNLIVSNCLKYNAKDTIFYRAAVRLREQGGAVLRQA
In short: (§1)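 ∆Tm in K was taken from Boltzmann-fitted unfolding inflection points, run in duplicate with a temperature ramp of 3 °C per minute up to 85 °C. Each recombinant protein (2 µM) was in HEPES 10 mM pH 7.5 and NaCl 500 mM, with SYPRO Orange dye at 1:1000.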

HEK293T cells [2] = experiment: Cytotoxicity: necrosis induction (red fluorescent dye for permeable plasma membranes); assay type: cell-based; details: 1 µM, 24 h, necrotic cell count normalized to 0.1% DMSO, single replicates;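 note: compounds applied in DMEM high glucose with 0.1% FCS and 0.1% DMSO, necrotic HEK293T cells counted by red staining of cells whose plasma membranes had become permeable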
Procedure: Cells were incubated with the test compounds at the indicated concentrations solubilized with 0.1% DMSO for 24 h. […] Necrotic cells were detected with a red fluorescent dye that labels cells with permeable plasma membranes after 24 h treatment and the necrotic cell count was normalized to 0.1% DMSO treated cells (n = 4). e NR family selectivity profiling of NR3 CG compound candidates in uniform Gal4-hybrid reporter gene assays for selected NR representing the NR1, NR2, NR4 and NR5 families.
HEK293T cells (German Collection of Microorganisms and Cell Culture GmbH, DSMZ; #ACC305) were cultured in DMEM high glucose, supplemented with 10% fetal calf serum (FCS), sodium pyruvate (1 mM), penicillin (100 µ/mL) and streptomycin (100 µg/mL) at 37 °C and 5% (v/v) CO2, and seeded in pre-coated (10 µg/mL collagen G solution (Merck KgaA; #L7213) for 30 min at 37 °C) 96-well plates (2 × 10^5 cells per well). After 24 h, the cells were treated with the respective NR3 CG compound candidate at the recommended concentration, bexarotene (100 µM) or doxorubicin (30 µM) as positive controls in DMEM high glucose supplemented with 0.1% FCS, penicillin (100 µ/mL), streptomycin (100 µg/mL) and 0.1% DMSO, or 0.1% DMSO alone as an untreated control. Each sample was prepared in at least four biologically independent replicates. […] Before drug administration, after the first medium exchange, 24 h after drug administration, and after fluorescence imaging cell confluence was assessed using the Tecan Spark Cyto, to account for changes in cell confluence due to drug administration and cell handling. Compound effects on cell confluence, apoptosis, metabolic activity and necrosis were normalized to the vehicle control of each biological replicate individually.

ABL1 = molecular target: T2, ABL1 (Homo sapiens, UniProt P00519); experiment: Liability panel screening by DSF: ABL1; assay type: binding; details: DSF, 20 µM, n=2; read-out: Mean ΔTM ABL1
T2 construct: made in house
T2 sequence (P00519 whole entry, species assumed): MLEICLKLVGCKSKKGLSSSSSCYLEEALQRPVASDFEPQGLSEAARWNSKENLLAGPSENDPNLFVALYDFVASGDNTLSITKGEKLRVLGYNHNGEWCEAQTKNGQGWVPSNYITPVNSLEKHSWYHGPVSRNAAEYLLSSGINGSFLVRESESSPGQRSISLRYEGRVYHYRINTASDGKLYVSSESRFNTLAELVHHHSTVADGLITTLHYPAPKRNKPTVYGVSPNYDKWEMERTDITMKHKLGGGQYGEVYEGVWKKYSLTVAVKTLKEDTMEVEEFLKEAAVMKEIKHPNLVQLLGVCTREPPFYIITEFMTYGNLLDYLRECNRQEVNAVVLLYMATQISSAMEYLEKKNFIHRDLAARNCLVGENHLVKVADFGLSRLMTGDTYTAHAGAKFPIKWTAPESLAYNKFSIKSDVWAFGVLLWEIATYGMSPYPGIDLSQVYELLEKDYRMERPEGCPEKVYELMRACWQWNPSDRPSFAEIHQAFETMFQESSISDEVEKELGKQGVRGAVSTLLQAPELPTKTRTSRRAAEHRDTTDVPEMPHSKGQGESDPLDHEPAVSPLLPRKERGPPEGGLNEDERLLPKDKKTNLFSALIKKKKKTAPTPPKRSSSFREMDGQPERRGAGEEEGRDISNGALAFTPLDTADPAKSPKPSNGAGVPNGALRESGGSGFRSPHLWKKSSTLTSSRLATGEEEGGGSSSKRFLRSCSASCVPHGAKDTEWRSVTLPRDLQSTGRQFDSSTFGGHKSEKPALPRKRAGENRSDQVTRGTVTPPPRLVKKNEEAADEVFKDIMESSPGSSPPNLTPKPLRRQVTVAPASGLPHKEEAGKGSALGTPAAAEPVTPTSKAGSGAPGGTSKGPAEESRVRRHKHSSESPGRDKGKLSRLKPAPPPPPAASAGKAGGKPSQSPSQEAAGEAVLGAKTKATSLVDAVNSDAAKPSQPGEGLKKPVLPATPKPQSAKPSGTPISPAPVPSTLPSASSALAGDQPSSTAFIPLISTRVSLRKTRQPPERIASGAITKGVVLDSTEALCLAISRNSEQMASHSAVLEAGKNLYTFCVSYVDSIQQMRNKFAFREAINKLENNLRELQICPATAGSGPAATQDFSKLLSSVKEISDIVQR
In short: as §1

HEK293T cells [3] = experiment: Cytotoxicity: growth-rate (change in confluence over 24 h); details: 1 µM, normalized to 0.1% DMSO control, single replicates (n=1...)
Procedure: Cells were incubated with the test compounds at the indicated concentrations solubilized with 0.1% DMSO for 24 h. Growth-rate was determined based on the change in confluence over 24 h normalized to the change in confluence of cells treated with the 0.1% DMSO control (n = 10). Metabolic activity was determined with a water-soluble tetrazolium-8 (WST-8) assay (n = 8) after 24 h treatment. Apoptotic cells were detected with a fluorogenic DNA dye coupled to the caspase-3/7 recognition sequence (DEVD) after 24 h treatment and the apoptotic cell count was normalized to 0.1% DMSO treated cells (n = 6).
HEK293T cells (German Collection of Microorganisms and Cell Culture GmbH, DSMZ; #ACC305) were cultured in DMEM high glucose, supplemented with 10% fetal calf serum (FCS), sodium pyruvate (1 mM), penicillin (100 µ/mL) and streptomycin (100 µg/mL) at 37 °C and 5% (v/v) CO2, and seeded in pre-coated (10 µg/mL collagen G solution (Merck KgaA; #L7213) for 30 min at 37 °C) 96-well plates (2 × 10^5 cells per well). After 24 h, the cells were treated with the respective NR3 CG compound candidate at the recommended concentration, bexarotene (100 µM) or doxorubicin (30 µM) as positive controls in DMEM high glucose supplemented with 0.1% FCS, penicillin (100 µ/mL), streptomycin (100 µg/mL) and 0.1% DMSO, or 0.1% DMSO alone as an untreated control. Each sample was prepared in at least four biologically independent replicates. […] Thereafter, the medium was aspirated and the cells were incubated for 3 h with 90 µL DMEM high glucose supplemented with 0.2% FCS, penicillin (100 µ/mL) and streptomycin (100 µg/mL) and additionally containing 10 µL Cell Counting Kit 8 solution (CCK-8; MedChemExpress, Monmouth Junction, New York, USA; #HY-K0301), and absorbance was measured at 1 h, 2 h and 3 h of incubation at 450 nm on a Tecan Spark Cyto to assess metabolic activity of the cells. Before drug administration, after the first medium exchange, 24 h after drug administration, and after fluorescence imaging cell confluence was assessed using the Tecan Spark Cyto, to account for changes in cell confluence due to drug administration and cell handling. Compound effects on cell confluence, apoptosis, metabolic activity and necrosis were normalized to the vehicle control of each biological replicate individually.

HEK293T cells [4] = experiment: Cytotoxicity: metabolic activity (WST-8 / CCK-8 assay); details: 1 µM; HEK293T, 24 h; WST-8; normalized to 0.1% DMSO; single replicates
TRIM24 = molecular target: T3, TRIM24 (Homo sapiens, UniProt O15164); experiment: Liability panel screening by DSF: TRIM24; assay type: binding; details: DSF, 20 µM, n=2; read-out: Mean ΔTM TRIM24
T3 construct: This panel comprised ten highly ligandable kinases and bromodomains; made in house
T3 sequence (O15164 899-1004 limits assumed): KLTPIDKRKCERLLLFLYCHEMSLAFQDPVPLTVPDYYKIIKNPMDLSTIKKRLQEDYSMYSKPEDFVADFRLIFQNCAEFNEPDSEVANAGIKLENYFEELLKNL
In short: as §1

CDK2 = molecular target: T4, CDK2 (Homo sapiens, UniProt P24941); experiment: Liability panel screening by DSF: CDK2; assay type: binding; details: DSF, 20 µM, n=2; read-out: Mean ΔTM CDK2
T4 construct: made in house
In short: as §1

Gal4-VP16 = assay type: cell-based; details: 1 µM; vs. DMSO ctrl; single replicates n=1-3
AURKA = molecular target: T5, AURKA (Homo sapiens, UniProt O14965); experiment: Liability panel screening by DSF: AURKA; assay type: binding; details: DSF, 20 µM, n=2; read-out: Mean ΔTM AURKA
T5 construct: made in house
T5 sequence (O14965 1-403): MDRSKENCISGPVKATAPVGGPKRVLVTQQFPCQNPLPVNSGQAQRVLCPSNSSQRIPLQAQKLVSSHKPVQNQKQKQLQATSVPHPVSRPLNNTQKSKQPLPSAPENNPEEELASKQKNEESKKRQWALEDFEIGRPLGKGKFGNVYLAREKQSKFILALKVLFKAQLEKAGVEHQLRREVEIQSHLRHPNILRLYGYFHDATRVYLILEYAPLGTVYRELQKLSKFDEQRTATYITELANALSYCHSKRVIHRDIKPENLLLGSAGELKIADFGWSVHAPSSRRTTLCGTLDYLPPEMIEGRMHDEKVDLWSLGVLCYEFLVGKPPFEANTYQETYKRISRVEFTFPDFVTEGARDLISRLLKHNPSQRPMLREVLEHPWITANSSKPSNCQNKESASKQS
In short: as §1

CSNK1D = molecular target: T6, CSNK1D (Homo sapiens, UniProt P48730); experiment: Liability panel screening by DSF: CSNK1D; assay type: binding; details: DSF, 20 µM, n=2; read-out: Mean ΔTM CSNK1D
T6 construct: made in house
T6 sequence (P48730 whole entry, species assumed): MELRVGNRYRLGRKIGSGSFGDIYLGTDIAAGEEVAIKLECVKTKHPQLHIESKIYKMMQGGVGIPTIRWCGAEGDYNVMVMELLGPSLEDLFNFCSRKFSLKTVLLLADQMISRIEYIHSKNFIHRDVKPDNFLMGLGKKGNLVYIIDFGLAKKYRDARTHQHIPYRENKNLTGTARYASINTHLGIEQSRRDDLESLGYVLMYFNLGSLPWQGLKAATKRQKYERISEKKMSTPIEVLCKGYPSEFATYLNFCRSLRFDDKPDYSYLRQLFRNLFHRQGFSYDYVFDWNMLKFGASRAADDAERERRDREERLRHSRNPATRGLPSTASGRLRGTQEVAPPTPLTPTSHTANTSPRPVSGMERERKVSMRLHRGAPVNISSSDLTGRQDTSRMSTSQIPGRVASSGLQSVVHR
In short: as §1

GSK3B = molecular target: T7, GSK3B (Homo sapiens, UniProt P49841); experiment: Liability panel screening by DSF: GSK3B; assay type: binding; details: DSF, 20 µM, n=2; read-out: Mean ΔTM GSK3B
T7 construct: made in house
T7 sequence (P49841 whole entry, species assumed): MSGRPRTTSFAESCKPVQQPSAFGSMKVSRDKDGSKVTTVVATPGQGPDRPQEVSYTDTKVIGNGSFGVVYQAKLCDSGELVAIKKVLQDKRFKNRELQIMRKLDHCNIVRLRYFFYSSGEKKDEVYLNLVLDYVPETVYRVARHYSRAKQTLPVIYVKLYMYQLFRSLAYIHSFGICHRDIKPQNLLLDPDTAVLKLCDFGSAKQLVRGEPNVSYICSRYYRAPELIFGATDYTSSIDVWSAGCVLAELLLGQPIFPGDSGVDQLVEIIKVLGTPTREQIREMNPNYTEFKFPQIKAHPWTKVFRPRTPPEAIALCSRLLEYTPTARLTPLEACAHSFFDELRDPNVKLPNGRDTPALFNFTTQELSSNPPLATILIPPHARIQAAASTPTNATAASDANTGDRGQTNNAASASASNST

MAPK1 = molecular target: T8, MAPK1 (Homo sapiens, UniProt P28482); experiment: Liability panel screening by DSF: MAPK1; assay type: binding; details: DSF, 20 µM, n=2; read-out: Mean ΔTM MAPK1
T8 construct: made in house
T8 sequence (P28482 whole entry, species assumed): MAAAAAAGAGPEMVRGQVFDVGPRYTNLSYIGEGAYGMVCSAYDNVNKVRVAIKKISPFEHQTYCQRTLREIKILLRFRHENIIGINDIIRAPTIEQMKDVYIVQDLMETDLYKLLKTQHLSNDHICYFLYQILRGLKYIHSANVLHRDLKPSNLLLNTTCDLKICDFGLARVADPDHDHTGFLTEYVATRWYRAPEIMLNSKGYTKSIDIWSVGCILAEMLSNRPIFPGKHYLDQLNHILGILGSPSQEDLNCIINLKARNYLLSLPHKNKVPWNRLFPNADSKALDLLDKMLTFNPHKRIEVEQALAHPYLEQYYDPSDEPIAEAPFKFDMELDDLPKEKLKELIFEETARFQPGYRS
In short: as §1

NR3C1 (GR) = details: (lit.); ref Supplementary Table 1; read-out: Potency [nM] EC50, NR3C1 (GR); cited from earlier work
FGFR3 = molecular target: T9, FGFR3 (Homo sapiens, UniProt P22607); experiment: Liability panel screening by DSF: FGFR3; assay type: binding; details: DSF, 20 µM, n=2; read-out: Mean ΔTM FGFR3
T9 construct: made in house
T9 sequence (P22607 23-806, species assumed): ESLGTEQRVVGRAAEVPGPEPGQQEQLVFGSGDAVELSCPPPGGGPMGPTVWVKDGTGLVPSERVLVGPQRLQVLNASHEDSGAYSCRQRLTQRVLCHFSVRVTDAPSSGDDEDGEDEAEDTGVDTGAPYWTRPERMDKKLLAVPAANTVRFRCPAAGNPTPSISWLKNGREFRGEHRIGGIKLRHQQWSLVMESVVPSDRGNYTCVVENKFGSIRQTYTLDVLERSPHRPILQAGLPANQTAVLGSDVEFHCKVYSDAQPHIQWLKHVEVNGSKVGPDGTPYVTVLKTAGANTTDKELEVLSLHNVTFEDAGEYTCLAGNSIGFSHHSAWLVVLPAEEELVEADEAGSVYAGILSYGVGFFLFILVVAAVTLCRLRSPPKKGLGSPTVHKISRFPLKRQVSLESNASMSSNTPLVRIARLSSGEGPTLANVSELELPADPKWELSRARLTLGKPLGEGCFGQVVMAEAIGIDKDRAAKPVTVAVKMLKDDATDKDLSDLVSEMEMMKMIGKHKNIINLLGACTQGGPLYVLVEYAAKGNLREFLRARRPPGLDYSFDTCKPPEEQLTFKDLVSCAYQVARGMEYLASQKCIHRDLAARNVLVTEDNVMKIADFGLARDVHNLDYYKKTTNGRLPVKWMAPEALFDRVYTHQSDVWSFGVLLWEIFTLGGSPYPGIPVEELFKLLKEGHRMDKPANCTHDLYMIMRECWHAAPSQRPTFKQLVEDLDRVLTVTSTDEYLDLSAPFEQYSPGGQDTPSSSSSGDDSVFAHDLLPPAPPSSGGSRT
In short: as §1

[5] = system: NF-κB activity in HEK293 NF-κB reporter cells; experiment: NF-kB activity assay (GFP reporter, ionomycin/PMA); assay type: cell-based; details: for Mean NFκB response: n=3; for NF-κB activity (inflammatory response to ionomycin/PMA): HEK293 NF-κB reporter cells, compounds at recommended concentrations, imaged over 24 h, n = 3
In short: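 HEK293 NF-κB GFP reporter cells given compound in 0.1% DMSO for 4 h, then stimulated with ionomycin 100 ng/mL plus PMA 10 ng/mL. Imaged every 90 min over 24 h; GFP-positive cell count normalized to confluence, three independent biological replicates.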

HEK293T cells [6] = experiment: Cytotoxicity: apoptosis induction (caspase-3/7 DEVD fluorogenic DNA dye); details: 1 µM; HEK293T, 24 h; apoptotic cell count normalized to 0.1% DMSO; single replicates
BRD4 = molecular target: T10, BRD4 (Homo sapiens, UniProt O60885); experiment: Liability panel screening by DSF: BRD4; assay type: binding; details: DSF, 20 µM, n=2; read-out: Mean ΔTM BRD4
T10 construct: This panel comprised ten highly ligandable kinases and bromodomains; made in house
In short: as §1

Compound | ATF6 activity (tunicamycin-induced endoplasmic reticulum stress) [1] | activity at 1 µM [1] [%] | ΔTm at 20 µM (BRPF1) [°C] | Necrosis induction [NI] (HEK293T cells [2]) | ΔTm at 20 µM (ABL1) [°C] | Growth rate [GR] (HEK293T cells [3]) | Metabolic activity [MA] (HEK293T cells [4]) | ΔTm at 20 µM (TRIM24) [°C] | ΔTm at 20 µM (CDK2) [°C] | VP16 control [fold reporter gene activity] (Gal4-VP16) | ΔTm at 20 µM (AURKA) [°C] | ΔTm at 20 µM (CSNK1D) [°C] | ΔTm at 20 µM (GSK3B) [°C] | ΔTm at 20 µM (MAPK1) [°C] | EC50 (NR3C1 (GR)) [nM] | ΔTm at 20 µM (FGFR3) [°C] | Mean NFκB response ([5]; 1 µM, 1,5 h) | Mean NFκB response ([5]; 1 µM, 4,5 h) | Mean NFκB response ([5]; 1 µM, 7,5 h) | Mean NFκB response ([5]; 1 µM, 10,5 h) | further results
COc1cccc([C@@H](Oc2ccc3c(cnn3-c3ccc(F)cc3)c2)[C@H](C)NC(=O)C(F)(F)F)c1 [AZD5423] | Consistently weaker ATF6 activity | 84 | -0.79 | 0.69 and 0.73 and 0.65 and 0.80 | -0.84 | 0.81 and 2.24 and 0.71 and 1.01 and 0.62 and 1.06 and 0.88 and 0.60 and 1.03 and 2.44 | 1.02 and 1.00 and 0.98 and 1.07 and 1.09 and 0.99 and 1.14 and 1.15 | -2.31 | -0.35 | 0.65 fold reporter gene activity and 0.98 fold reporter gene activity and 1.07 fold reporter gene activity | -3.28 | -5.6 | 0.67 | -5.37 | 0.9 ± 0.2 | -1.62 | 2076.25 GFP+-cells/confluence ∙ 1000 | 2908.84 GFP+-cells/confluence ∙ 1000 | 5573.87 GFP+-cells/confluence ∙ 1000 | 12373.33 GFP+-cells/confluence ∙ 1000 | Mean NFκB response ([5]; 1 µM, 13,5 h): 17196.67 GFP+-cells/confluence ∙ 1000; Mean NFκB response ([5]; 1 µM, 16,6 h): 21116.67 GFP+-cells/confluence ∙ 1000; Mean NFκB response ([5]; 1 µM, 19,5 h): 24016.67 GFP+-cells/confluence ∙ 1000; Mean NFκB response ([5]; 1 µM, 22,5 h): 27100.00 GFP+-cells/confluence ∙ 1000; Mean NFκB response ([5]; 1 µM, 3 h): 2386.46 GFP+-cells/confluence ∙ 1000; Mean NFκB response ([5]; 1 µM, 6 h): 3758.89 GFP+-cells/confluence ∙ 1000; Mean NFκB response ([5]; 1 µM, 9 h): 9073.33 GFP+-cells/confluence ∙ 1000; Mean NFκB response ([5]; 1 µM, 12 h): 14943.33 GFP+-cells/confluence ∙ 1000; Mean NFκB response ([5]; 1 µM, 15 h): 19223.33 GFP+-cells/confluence ∙ 1000; Mean NFκB response ([5]; 1 µM, 18 h): 22723.33 GFP+-cells/confluence ∙ 1000; Mean NFκB response ([5]; 1 µM, 21 h): 25420.00 GFP+-cells/confluence ∙ 1000; Mean NFκB response ([5]; 1 µM, 24 h): 27183.33 GFP+-cells/confluence ∙ 1000; NF-κB activity (inflammatory response to ionomycin/PMA) [5]: consistently delayed and strongly diminished NF-κB activity; Apoptosis induction [AI] (HEK293T cells [6]): 0.73 and 0.76 and 0.75 and 0.81 and 1.24 and 2.34; ΔTm at 20 µM (BRD4): -1.37 °C
C[C@H]1C[C@H]2[C@@H]3CCC4=CC(=O)C=C[C@]4(C)[C@@]3(Cl)[C@@H](O)C[C@]2(C)[C@@]1(O)C(=O)CO [Beclomethasone] | Consistently weaker ATF6 activity | 72 | -0.66 | 0.78 and 0.71 and 0.63 and 0.85 | -0.27 | 0.71 and 0.34 and 0.95 and 1.09 and 0.91 and 1.08 and 0.81 and 0.17 and 2.51 and -0.30 | 1.06 and 1.03 (2×) and 0.92 and 0.98 (2×) and 1.01 and 1.10 | -1.53 | -0.29 | 1.09 fold reporter gene activity and 0.87 fold reporter gene activity and 0.97 fold reporter gene activity | 0.03 | -0.04 | -0.75 | 0.36 | 8 | -0.31 | 2314.11 GFP+-cells/confluence ∙ 1000 | 2712.93 GFP+-cells/confluence ∙ 1000 | 3902.54 GFP+-cells/confluence ∙ 1000 | 7904.68 GFP+-cells/confluence ∙ 1000 | Mean NFκB response ([5]; 1 µM, 13,5 h): 11292.34 GFP+-cells/confluence ∙ 1000; Mean NFκB response ([5]; 1 µM, 16,6 h): 14142.72 GFP+-cells/confluence ∙ 1000; Mean NFκB response ([5]; 1 µM, 19,5 h): 16024.63 GFP+-cells/confluence ∙ 1000; Mean NFκB response ([5]; 1 µM, 22,5 h): 18119.25 GFP+-cells/confluence ∙ 1000; Mean NFκB response ([5]; 1 µM, 3 h): 2367.97 GFP+-cells/confluence ∙ 1000; Mean NFκB response ([5]; 1 µM, 6 h): 3065.61 GFP+-cells/confluence ∙ 1000; Mean NFκB response ([5]; 1 µM, 9 h): 5609.44 GFP+-cells/confluence ∙ 1000; Mean NFκB response ([5]; 1 µM, 12 h): 9507.58 GFP+-cells/confluence ∙ 1000; Mean NFκB response ([5]; 1 µM, 15 h): 12732.70 GFP+-cells/confluence ∙ 1000; Mean NFκB response ([5]; 1 µM, 18 h): 14975.90 GFP+-cells/confluence ∙ 1000; Mean NFκB response ([5]; 1 µM, 21 h): 16981.30 GFP+-cells/confluence ∙ 1000; Mean NFκB response ([5]; 1 µM, 24 h): 19467.95 GFP+-cells/confluence ∙ 1000; NF-κB activity (inflammatory response to ionomycin/PMA) [5]: consistently delayed and strongly diminished NF-κB activity; Apoptosis induction [AI] (HEK293T cells [6]): 0.38 and 0.63 and 0.67 and 0.78 and 0.69 and 1.03; ΔTm at 20 µM (BRD4): -0.57 °C
